Data reported in patent US20210346329A1, “TCA CYCLE INTERMEDIATES AND METHODS OF USE THEREOF” (IMBRIA PHARMACEUTICALS, INC., priority 2018, published 2021).

Test: Tissue distribution of radioactivity (whole-body sections, phosphor imaging, image densitometry)
Conditions: IV 10 mg/kg
Protocol: The plasma-time course, routes and rates of excretion, and tissue distribution of radioactivity following a single oral dose of ^14C-labeled citrate or single oral dose of ^14C-labeled succinate were analyzed in rats.
CD® rats were obtained from Charles River Laboratories. Animals were 9-11 weeks in age at beginning of study.
Animals given intravenous ^14C-succinate were not kept in a fasting state. ^14C-succinate was administered by tail vein injection.
At 0.5, 1, 2, 4, 8, and 24 hours post-dose, after terminal blood collections, euthanized animals were frozen in a hexane/dry ice bath and embedded in a 5% carboxymethylcellulose matrix according to MPI Research SOP IMG-23.
Sections of approximately 30 μm thickness were taken in the sagittal plane. Appropriate sections selected at various levels of interest in the block were collected to encompass the following tissues, organs, and biological fluids, where possible: adrenal gland, bladder and contents (urine), blood (cardiac), bone, bone marrow, brain, epididymis, eye, fat (brown), fat (white), heart, kidney, large intestine/cecum and contents, liver, lung, muscle, pancreas, prostate/uterus, salivary glands, skin, small intestine and contents, spleen, stomach and contents, testes/ovaries, thymus, thyroid, and mesenteric lymph nodes.
Quantification, relative to the calibration standards, was performed by image densitometry using MCID™ image analysis software according to MPI Research SOP IMG-24. A standard curve was constructed from the integrated response (MDC/mm^2) and the nominal concentrations of the [^14C]calibration standards. The concentrations of radioactivity were expressed as μCi/g and converted to μg or ng equivalents of [^14C]Test Article per gram sample (ng-eq/g or μg-eq/g) using the specific activity of administered [^14C]Test Article dose formulation. A lower limit of quantification (LLOQ) was applied to the data. The LLOQ was determined using the radioactive concentration of the lowest calibration standard used to generate a calibration curve divided by the specific activity of the dose formulation (μCi/mg). Artifacts, such as those produced by dislodged contents of the alimentary canal, were excluded from analysis during image analysis.

Radioactivity in tissue (Bone marrow, 0.5 Hour): 1314 ng Equivalents test article/g
Radioactivity in tissue (Bone marrow, 1 Hour): 1750 ng Equivalents test article/g
Radioactivity in tissue (Bone marrow, 2 Hours): 1398 ng Equivalents test article/g
Radioactivity in tissue (Bone marrow, 4 Hours): 1419 ng Equivalents test article/g
Radioactivity in tissue (Bone marrow, 8 Hours): 1019 ng Equivalents test article/g
Radioactivity in tissue (Bone marrow, 24 Hours): 769 ng Equivalents test article/g
Radioactivity in tissue (Bone, 0.5 Hour): 3128 ng Equivalents test article/g
Radioactivity in tissue (Bone, 1 Hour): 3200 ng Equivalents test article/g
Radioactivity in tissue (Bone, 2 Hours): 1989 ng Equivalents test article/g
Radioactivity in tissue (Bone, 4 Hours): 2330 ng Equivalents test article/g
Radioactivity in tissue (Bone, 8 Hours): 2042 ng Equivalents test article/g
Radioactivity in tissue (Bone, 24 Hours): 1322 ng Equivalents test article/g
Radioactivity in tissue (Cecum contents, 0.5 Hour): 540 ng Equivalents test article/g
Radioactivity in tissue (Cecum contents, 1 Hour): 882 ng Equivalents test article/g
Radioactivity in tissue (Cecum contents, 2 Hours): 757 ng Equivalents test article/g
Radioactivity in tissue (Cecum contents, 4 Hours): 750 ng Equivalents test article/g
Radioactivity in tissue (Cecum contents, 8 Hours): 806 ng Equivalents test article/g
Radioactivity in tissue (Cerebellum, 0.5 Hour): 709 ng Equivalents test article/g
Radioactivity in tissue (Cerebellum, 1 Hour): 847 ng Equivalents test article/g
Radioactivity in tissue (Cerebellum, 2 Hours): 529 ng Equivalents test article/g
Radioactivity in tissue (Cerebellum, 4 Hours): 503 ng Equivalents test article/g
Radioactivity in tissue (Cerebrum, 0.5 Hour): 596 ng Equivalents test article/g
Radioactivity in tissue (Cerebrum, 1 Hour): 853 ng Equivalents test article/g
Radioactivity in tissue (Cerebrum, 2 Hours): 477 ng Equivalents test article/g
Radioactivity in tissue (Cerebrum, 4 Hours): 543 ng Equivalents test article/g
Radioactivity in tissue (Cerebrum, 8 Hours): 348 ng Equivalents test article/g
Radioactivity in tissue (Epididymis, 0.5 Hour): 699 ng Equivalents test article/g
Radioactivity in tissue (Epididymis, 1 Hour): 785 ng Equivalents test article/g
Radioactivity in tissue (Epididymis, 2 Hours): 442 ng Equivalents test article/g
Radioactivity in tissue (Eye, 0.5 Hour): 569 ng Equivalents test article/g
Radioactivity in tissue (Eye, 1 Hour): 584 ng Equivalents test article/g
Radioactivity in tissue (Eye, 2 Hours): 371 ng Equivalents test article/g
Radioactivity in tissue (Eye, 4 Hours): 413 ng Equivalents test article/g
Radioactivity in tissue (Fat (brown), 0.5 Hour): 996 ng Equivalents test article/g
Radioactivity in tissue (Fat (white), 4 Hours): 348 ng Equivalents test article/g
Radioactivity in tissue (Harderian gland, 1 Hour): 1983 ng Equivalents test article/g
Radioactivity in tissue (Harderian gland, 2 Hours): 1478 ng Equivalents test article/g
Radioactivity in tissue (Kidney, 0.5 Hour): 3154 ng Equivalents test article/g
Radioactivity in tissue (Kidney, 1 Hour): 3060 ng Equivalents test article/g
Radioactivity in tissue (Kidney, 2 Hours): 2704 ng Equivalents test article/g
Radioactivity in tissue (Kidney, 4 Hours): 2075 ng Equivalents test article/g
Radioactivity in tissue (Kidney, 8 Hours): 2031 ng Equivalents test article/g
Radioactivity in tissue (Kidney, 24 Hours): 1120 ng Equivalents test article/g
Radioactivity in tissue (Lacrimal gland (Ex-orbital), 1 Hour): 1557 ng Equivalents test article/g
Radioactivity in tissue (Lacrimal gland (Ex-orbital), 2 Hours): 1655 ng Equivalents test article/g
Radioactivity in tissue (Lacrimal gland (Ex-orbital), 4 Hours): 1993 ng Equivalents test article/g
Radioactivity in tissue (Lacrimal gland (Ex-orbital), 8 Hours): 1388 ng Equivalents test article/g
Radioactivity in tissue (Lacrimal gland (Intra-orbital), 1 Hour): 2323 ng Equivalents test article/g
Radioactivity in tissue (Lacrimal gland (Intra-orbital), 2 Hours): 1355 ng Equivalents test article/g
Radioactivity in tissue (Large intestinal contents, 1 Hour): 519 ng Equivalents test article/g
Radioactivity in tissue (Large intestinal contents, 4 Hours): 810 ng Equivalents test article/g
Radioactivity in tissue (Large intestinal contents, 8 Hours): 593 ng Equivalents test article/g
Radioactivity in tissue (Large intestine, 1 Hour): 1787 ng Equivalents test article/g
Radioactivity in tissue (Large intestine, 2 Hours): 1716 ng Equivalents test article/g
Radioactivity in tissue (Large intestine, 4 Hours): 1361 ng Equivalents test article/g
Radioactivity in tissue (Liver, 0.5 Hour): 2431 ng Equivalents test article/g
Radioactivity in tissue (Liver, 1 Hour): 3607 ng Equivalents test article/g
Radioactivity in tissue (Liver, 2 Hours): 2005 ng Equivalents test article/g
Radioactivity in tissue (Liver, 4 Hours): 1561 ng Equivalents test article/g
Radioactivity in tissue (Liver, 8 Hours): 1190 ng Equivalents test article/g
Compound: O=C(O)CCC(=O)O [^14C-succinate]
Radioactivity in tissue (Cecum contents, 24 Hours): BLQ (BLQ: Below limit of quantitation (<320 ng equivalents test article/g).)
Radioactivity in tissue (Cecum, 0.5 Hour): BLQ (BLQ: Below limit of quantitation (<320 ng equivalents test article/g).)
Radioactivity in tissue (Cecum, 1 Hour): BLQ (BLQ: Below limit of quantitation (<320 ng equivalents test article/g).)
Radioactivity in tissue (Cecum, 2 Hours): BLQ (BLQ: Below limit of quantitation (<320 ng equivalents test article/g).)
Radioactivity in tissue (Cecum, 4 Hours): BLQ (BLQ: Below limit of quantitation (<320 ng equivalents test article/g).)
Radioactivity in tissue (Cecum, 8 Hours): BLQ (BLQ: Below limit of quantitation (<320 ng equivalents test article/g).)
Radioactivity in tissue (Cecum, 24 Hours): BLQ (BLQ: Below limit of quantitation (<320 ng equivalents test article/g).)
Radioactivity in tissue (Cerebellum, 8 Hours): BLQ (BLQ: Below limit of quantitation (<320 ng equivalents test article/g).)
Radioactivity in tissue (Cerebellum, 24 Hours): BLQ (BLQ: Below limit of quantitation (<320 ng equivalents test article/g).)
Radioactivity in tissue (Cerebrum, 24 Hours): BLQ (BLQ: Below limit of quantitation (<320 ng equivalents test article/g).)
Radioactivity in tissue (Epididymis, 4 Hours): BLQ (BLQ: Below limit of quantitation (<320 ng equivalents test article/g).)
Radioactivity in tissue (Epididymis, 8 Hours): BLQ (BLQ: Below limit of quantitation (<320 ng equivalents test article/g).)
Radioactivity in tissue (Epididymis, 24 Hours): BLQ (BLQ: Below limit of quantitation (<320 ng equivalents test article/g).)
Radioactivity in tissue (Eye, 8 Hours): BLQ (BLQ: Below limit of quantitation (<320 ng equivalents test article/g).)
Radioactivity in tissue (Eye, 24 Hours): BLQ (BLQ: Below limit of quantitation (<320 ng equivalents test article/g).)
Radioactivity in tissue (Fat (brown), 1 Hour): BLQ (BLQ: Below limit of quantitation (<320 ng equivalents test article/g).)
Radioactivity in tissue (Fat (brown), 2 Hours): BLQ (BLQ: Below limit of quantitation (<320 ng equivalents test article/g).)
Radioactivity in tissue (Fat (brown), 4 Hours): BLQ (BLQ: Below limit of quantitation (<320 ng equivalents test article/g).)
Radioactivity in tissue (Fat (brown), 8 Hours): BLQ (BLQ: Below limit of quantitation (<320 ng equivalents test article/g).)
Radioactivity in tissue (Fat (brown), 24 Hours): BLQ (BLQ: Below limit of quantitation (<320 ng equivalents test article/g).)
Radioactivity in tissue (Fat (white), 0.5 Hour): BLQ (BLQ: Below limit of quantitation (<320 ng equivalents test article/g).)
Radioactivity in tissue (Fat (white), 1 Hour): BLQ (BLQ: Below limit of quantitation (<320 ng equivalents test article/g).)
Radioactivity in tissue (Fat (white), 2 Hours): BLQ (BLQ: Below limit of quantitation (<320 ng equivalents test article/g).)
Radioactivity in tissue (Fat (white), 8 Hours): BLQ (BLQ: Below limit of quantitation (<320 ng equivalents test article/g).)
Radioactivity in tissue (Fat (white), 24 Hours): BLQ (BLQ: Below limit of quantitation (<320 ng equivalents test article/g).)
Radioactivity in tissue (Harderian gland, 0.5 Hour): BLQ (BLQ: Below limit of quantitation (<320 ng equivalents test article/g).)
Radioactivity in tissue (Harderian gland, 4 Hours): BLQ (BLQ: Below limit of quantitation (<320 ng equivalents test article/g).)
Radioactivity in tissue (Harderian gland, 8 Hours): BLQ (BLQ: Below limit of quantitation (<320 ng equivalents test article/g).)
Radioactivity in tissue (Harderian gland, 24 Hours): BLQ (BLQ: Below limit of quantitation (<320 ng equivalents test article/g).)
Radioactivity in tissue (Lacrimal gland (Ex-orbital), 0.5 Hour): BLQ (BLQ: Below limit of quantitation (<320 ng equivalents test article/g).)
Radioactivity in tissue (Lacrimal gland (Ex-orbital), 24 Hours): BLQ (BLQ: Below limit of quantitation (<320 ng equivalents test article/g).)
Radioactivity in tissue (Lacrimal gland (Intra-orbital), 0.5 Hour): BLQ (BLQ: Below limit of quantitation (<320 ng equivalents test article/g).)
Radioactivity in tissue (Lacrimal gland (Intra-orbital), 4 Hours): BLQ (BLQ: Below limit of quantitation (<320 ng equivalents test article/g).)
Radioactivity in tissue (Lacrimal gland (Intra-orbital), 8 Hours): BLQ (BLQ: Below limit of quantitation (<320 ng equivalents test article/g).)
Radioactivity in tissue (Lacrimal gland (Intra-orbital), 24 Hours): BLQ (BLQ: Below limit of quantitation (<320 ng equivalents test article/g).)
Radioactivity in tissue (Large intestinal contents, 0.5 Hour): BLQ (BLQ: Below limit of quantitation (<320 ng equivalents test article/g).)
Radioactivity in tissue (Large intestinal contents, 24 Hours): BLQ (BLQ: Below limit of quantitation (<320 ng equivalents test article/g).)
Radioactivity in tissue (Large intestine, 0.5 Hour): BLQ (BLQ: Below limit of quantitation (<320 ng equivalents test article/g).)
Radioactivity in tissue (Large intestine, 8 Hours): BLQ (BLQ: Below limit of quantitation (<320 ng equivalents test article/g).)
Radioactivity in tissue (Large intestine, 24 Hours): BLQ (BLQ: Below limit of quantitation (<320 ng equivalents test article/g).)
